Consider one compound from PMC7044277 (Nature Communications, 2020).

What all share (type): cell-based
The target of experiment [1] is T1, 320 non-olfactory GPCRs (Homo sapiens, UniProt Q9BPV8).
T1 construct: expressed in transfected cells; host or cells: HTLA cells
To be noted: receptor P2RY13; replicate values, Fig_4g.

Experiment [2] deals with T2, 320 non-olfactory GPCRs (Homo sapiens, UniProt Q9UBS5).
T2 construct: expressed in transfected cells; host or cells: HTLA cells

Experiment [3] has as its target T3, 320 non-olfactory GPCRs (Homo sapiens, UniProt P08173).
T3 construct: expressed in transfected cells; host or cells: HTLA cells

The target in experiment [4] is T4, 320 non-olfactory GPCRs (Homo sapiens, UniProt P30556).
T4 construct: expressed in transfected cells; host or cells: HTLA cells

SMILES strings stand for the structures. Several values for one entry are separate records, joined by “and”; a condition that tells them apart may be missing. Identical values can stand only once.
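Wherever Fold of Basal is given: compound tested at 1 µM final concentration.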
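Wherever GPCRome agonism screen response is given: fold over basal response of each receptor without drug.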

T1 sequence (Q9BPV8 whole entry): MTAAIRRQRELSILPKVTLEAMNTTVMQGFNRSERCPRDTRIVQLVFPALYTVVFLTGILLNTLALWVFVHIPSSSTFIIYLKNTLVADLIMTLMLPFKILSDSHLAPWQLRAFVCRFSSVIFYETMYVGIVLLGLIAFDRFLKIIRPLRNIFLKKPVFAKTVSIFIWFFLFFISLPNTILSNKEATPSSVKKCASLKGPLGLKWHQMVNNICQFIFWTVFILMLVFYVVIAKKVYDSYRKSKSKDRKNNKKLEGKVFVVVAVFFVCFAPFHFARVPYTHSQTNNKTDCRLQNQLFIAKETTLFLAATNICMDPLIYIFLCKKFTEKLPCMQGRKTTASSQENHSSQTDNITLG
T2 sequence (Q9UBS5 20-961): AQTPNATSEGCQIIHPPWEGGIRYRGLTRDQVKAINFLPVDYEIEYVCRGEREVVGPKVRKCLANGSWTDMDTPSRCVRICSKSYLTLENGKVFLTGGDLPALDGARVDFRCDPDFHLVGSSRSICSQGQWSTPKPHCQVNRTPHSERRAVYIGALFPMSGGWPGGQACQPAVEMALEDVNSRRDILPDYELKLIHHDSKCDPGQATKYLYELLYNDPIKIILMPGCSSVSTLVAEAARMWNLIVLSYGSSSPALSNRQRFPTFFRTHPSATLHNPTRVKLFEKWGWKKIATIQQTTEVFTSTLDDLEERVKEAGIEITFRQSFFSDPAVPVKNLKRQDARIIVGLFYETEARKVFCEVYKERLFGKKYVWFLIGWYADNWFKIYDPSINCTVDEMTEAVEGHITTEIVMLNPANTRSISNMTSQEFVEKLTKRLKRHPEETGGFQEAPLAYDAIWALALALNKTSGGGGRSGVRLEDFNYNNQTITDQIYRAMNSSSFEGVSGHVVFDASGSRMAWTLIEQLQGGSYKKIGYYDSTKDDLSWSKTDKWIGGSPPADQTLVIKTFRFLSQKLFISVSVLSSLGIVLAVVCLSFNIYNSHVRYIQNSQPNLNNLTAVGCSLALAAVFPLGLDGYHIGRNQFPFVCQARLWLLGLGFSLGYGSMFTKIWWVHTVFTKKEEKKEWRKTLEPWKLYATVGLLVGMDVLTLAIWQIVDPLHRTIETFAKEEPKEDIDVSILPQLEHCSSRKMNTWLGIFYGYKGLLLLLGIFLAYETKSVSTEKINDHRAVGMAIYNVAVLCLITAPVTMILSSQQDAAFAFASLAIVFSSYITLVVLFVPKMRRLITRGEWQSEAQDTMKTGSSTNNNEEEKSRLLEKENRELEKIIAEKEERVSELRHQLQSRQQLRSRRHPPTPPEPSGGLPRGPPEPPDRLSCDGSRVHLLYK
T4 sequence (P30556 whole entry): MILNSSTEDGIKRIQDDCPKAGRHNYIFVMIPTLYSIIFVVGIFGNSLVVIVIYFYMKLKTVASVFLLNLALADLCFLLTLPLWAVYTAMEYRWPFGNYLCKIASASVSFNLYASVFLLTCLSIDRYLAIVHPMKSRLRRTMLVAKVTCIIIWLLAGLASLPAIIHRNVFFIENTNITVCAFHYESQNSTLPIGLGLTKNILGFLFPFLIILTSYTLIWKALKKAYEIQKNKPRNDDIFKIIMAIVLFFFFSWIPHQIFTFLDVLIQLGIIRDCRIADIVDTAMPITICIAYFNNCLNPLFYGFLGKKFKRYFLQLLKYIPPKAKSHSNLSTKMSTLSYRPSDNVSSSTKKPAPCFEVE
T3 sequence (P08173 whole entry): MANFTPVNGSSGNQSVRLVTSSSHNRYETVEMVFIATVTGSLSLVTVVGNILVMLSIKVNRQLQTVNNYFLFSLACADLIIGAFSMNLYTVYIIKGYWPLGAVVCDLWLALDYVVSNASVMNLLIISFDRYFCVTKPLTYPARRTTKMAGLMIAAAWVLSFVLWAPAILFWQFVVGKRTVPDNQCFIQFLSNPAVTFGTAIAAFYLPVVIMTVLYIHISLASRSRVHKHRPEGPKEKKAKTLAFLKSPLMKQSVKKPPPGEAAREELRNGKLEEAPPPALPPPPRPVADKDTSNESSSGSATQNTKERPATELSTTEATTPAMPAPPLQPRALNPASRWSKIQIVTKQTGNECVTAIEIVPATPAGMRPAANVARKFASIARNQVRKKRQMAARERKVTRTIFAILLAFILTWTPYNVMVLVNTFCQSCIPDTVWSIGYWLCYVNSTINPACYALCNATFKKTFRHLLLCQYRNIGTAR

For the compound `CCOc1cccc2cc(C(C)NCC3(O)CCCCC3)oc12` (stereo not shown) [O4LE6], the “GPCRome agonism screen response” value on 320 non-olfactory GPCRs [1] is 0.7893 and 1.044 and 0.6466 and 2.085. The “Fold of Basal” value on 320 non-olfactory GPCRs [2] is 0.7465 and 0.7299 and 1.058 and 0.6886; at 320 non-olfactory GPCRs [3] it was 0.6531 and 0.5382 and 0.5491 and 0.5885; at 320 non-olfactory GPCRs [4], 1.668 and 2.301 and 2.105 and 2.204.
